Assay results published in US20180055915A1, “COMPOSITIONS AND METHODS FOR TREATING PROSTATE CANCER” (UNIVERSITY OF ROCHESTER, priority 2016, published 2018).
pIC50: −log10 of the molar value.

Tests used:
Format in all cases: cell-based
ARv7 = biological target: T1, ARv7 (Homo sapiens, UniProt P10275); test: ARv7 protein expression/degradation in CRPC cells (western blot)
T1 construct: endogenous in cells; host or cells: EnzR1 C4-2, EnzR3 C4-2B, EnzR2 CWR22Rv1
T1 sequence (P10275 1-644 isoform P10275-3): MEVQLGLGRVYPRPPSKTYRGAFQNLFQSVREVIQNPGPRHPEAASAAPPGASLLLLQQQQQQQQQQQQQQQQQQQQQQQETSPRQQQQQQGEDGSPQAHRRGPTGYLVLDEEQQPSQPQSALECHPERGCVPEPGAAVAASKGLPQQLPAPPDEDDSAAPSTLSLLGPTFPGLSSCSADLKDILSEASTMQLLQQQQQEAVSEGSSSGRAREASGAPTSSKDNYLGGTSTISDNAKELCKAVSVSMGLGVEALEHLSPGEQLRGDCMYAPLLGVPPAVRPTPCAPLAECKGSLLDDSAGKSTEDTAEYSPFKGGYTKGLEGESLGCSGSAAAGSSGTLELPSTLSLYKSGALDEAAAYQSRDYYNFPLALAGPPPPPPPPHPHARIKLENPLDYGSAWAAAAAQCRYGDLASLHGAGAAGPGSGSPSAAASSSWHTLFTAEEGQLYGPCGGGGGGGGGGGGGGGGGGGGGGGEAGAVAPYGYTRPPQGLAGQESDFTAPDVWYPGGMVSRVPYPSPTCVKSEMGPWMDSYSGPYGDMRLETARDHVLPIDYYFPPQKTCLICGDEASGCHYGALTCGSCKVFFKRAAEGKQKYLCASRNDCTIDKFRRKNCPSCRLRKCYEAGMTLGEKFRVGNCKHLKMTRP
Protocol: To further dissect the mechanism(s) why Cis can decrease ARv7 (and AR) protein expression, first assayed was the Cis effects on ARv7 (and AR) protein stability with protein biosynthesis inhibitor, cycloheximide (CHX) and proteasome inhibitor MG132 in EnzR2-CWR22Rv1 cells.
For protein degradation, EnzR C4-2 cells were treated with 1 μg/mL Cisplatin for 6 hr. Cycloheximide or MG132 was added for another 4 hrs. For ubiquitination, human kidney epithelial HEK293T cells were grown in DMEM media with 10% FCS. Cells were plated at ˜60% confluency and pGFP-ubiquitin, pAR were transiently transfected into cells using CaCl2 reagent. After 48 hrs. of transfection, cells were treated with 1 μg/mL Cisplatin for 6 hrs. […], MG132, was added for another 4 hrs. Cell extracts were analyzed for AR degradation or AR-ubiquitination by using western blot.
Cells were lysed in lysis buffer and proteins (50 μg) were separated on 10% SDS/PAGE gel and then transferred onto PVDF membranes (Millipore, Billerica, Mass.). After blocking membranes with 5% milk, they were incubated with appropriate dilutions of specific primary antibodies (anti-AR (N-20), anti-SF2, anti-GFP, anti-GAPDH, anti-a-tubulin). The blots were incubated with HRP-conjugated secondary antibodies and visualized using ECL system (Thermo Fisher Scientific, Rochester, N.Y.).

EnzR2-CWR22Rv1 cells = test: MTT cell proliferation assay, EnzR2-CWR22Rv1; details: FIG. 2E
Protocol: (§1) Cells were seeded in 24-well plates (5×10^3 cells/500 μL media per well) and cultured for 0, 2, 4 and 6 days. Cells were harvested and cell numbers and absorbance were calculated and recorded after using yellow tetrazolium MTT (3-(4, 5-dimethylthiazolyl-2)-2,5-diphenyltetrazolium bromide agent.

EnzR3-C4-2B cells = test: MTT cell proliferation assay, EnzR3-C4-2B; details: FIG. 2H
Protocol: as §1

Enz-S1-C4-2 cells = test: Enz sensitivity after 2 months treatment (MTT proliferation); details: after 10 uM Enz plus 0.2 ug/mL (0.66 uM) Cis for 2 months, FIG. 3C
Protocol: as §1

ARv7 mRNA = ARv7 mRNA expression (real-time PCR)
Protocol: (§2) Total RNAs were isolated using Trizol reagent (Invitrogen, Grand Island, N.Y.). 2 μg of total RNA was subjected to reverse transcription using Superscript III transcriptase (Invitrogen). Quantitative real-time PCR (qRT-PCR) was conducted using a Bio-Rad CFX96 system with SYBR green to determine the mRNA expression level of a gene of interest. Expression levels were normalized to the expression of GAPDH.

Malat1 = Malat1 mRNA expression (real-time PCR); details: EnzR1-C4-2 cells, FIG. 4F
Protocol: as §2

With “(SP-4-2)-diamminedichloroplatinum(II) [Cis]” the “ARv7 (and AR877) degradation” value (ARv7; CWR22Rv1 cells, Cis plus CHX compared to CHX alone, FIG. 4C) was “can facilitate ARv7 (and AR877) degradation”, the ARv7 expression (ARv7; EnzR1-C4-2 cells, increasing Cis, FIG. 1B) was “diminishing ARv7 was detected upon increasing Cis” and the ARv7 protein degradation (ARv7; EnzR2-CWR22Rv1 cells, after 6 hrs treatment, FIG. 4A) was “could degrade ARv7 (and AR)”. The “IC50 (cell growth)” value (EnzR2-CWR22Rv1 cells) was 5 µg/mL, the pIC50 (EnzR2-CWR22Rv1 cells; read-out: IC50 (cell growth)) was 4.78 and the “IC50 (cell growth)” value (EnzR3-C4-2B cells) was 3.3 µg/mL. The pIC50 (EnzR3-C4-2B cells; read-out: IC50 (cell growth)) was 4.96, the Enz sensitivity (Enz-S1-C4-2 cells) was 62% and the “ARv7 mRNA expression” value (ARv7 mRNA; Enz-S1-C4-2 cells, Enz plus Cis (0.2 ug/mL), FIG. 3D) was “suppressed the Enz-increased ARv7 significantly”. For the same substance, the “ARv7 mRNA expression” value (ARv7 mRNA; EnzR1-C4-2 cells, FIG. 4E) was “decreased in dose-dependent manner” and the “Malat1 mRNA expression” value (Malat1) was “decreased in dose-dependent manner”.
